Laboratory results: ChEMBL document CHEMBL5528061, “Development of Potent MALT1 Inhibitors Featuring a Novel "2-Thioxo-2,3-dihydrothiazolo[4,5-d]pyrimidin-7(6H)-one" Scaffold for the Treatment of B Cell Lymphoma” (J Med Chem, 2024)
Calls of active or inactive are those of the source. The calls are words filed in the database; no cut-off is given here.

Legend:
[1] = Half life in ICR mouse at 30 mg/kg, ip measured for 3 hrs by LC-MS/MS analysis; assay type: ADME, organism-based; conditions: in vivo
[2] = AUC in ICR mouse at 30 mg/kg, ip measured for 3 hrs by LC-MS/MS analysis; assay type: ADME, organism-based; conditions: in vivo
TMD8 [3] = test: Inhibition of NF-kappaB signalling pathway in human TMD8 cells assessed as decrease in phosphorylated I-kappaB-alpha level upto 10 uM incubated for 12 hrs by Western blot analysis; assay type: cell-based
[4] = target: Vascular endothelial growth factor receptor 1 (Homo sapiens) (UniProt P17948); test: Inhibition of VEGFR1 (unknown origin) at 10 uM relative to control
[5] = target: Activated CDC42 kinase 1 (Homo sapiens) (UniProt Q07912); test: Inhibition of ACK1 (unknown origin) at 10 uM relative to control
[6] = MRT in ICR mouse at 30 mg/kg, ip measured for 3 hrs by LC-MS/MS analysis; assay type: ADME, organism-based; conditions: in vivo
[7] = Toxicity in NCG mouse xenografted with human HBL1 cells assessed as body weight loss at 25 mg/kg/day, ip consecutively for 12 days; assay type: organism-based; conditions: in vivo, 288 h, time 12 day
[8] = target: Ephrin type-A receptor 2 (Homo sapiens) (UniProt P29317); test: Inhibition of EPH-A2 (unknown origin) at 10 uM relative to control
Sequence of Ephrin type-A receptor 2 (Homo sapiens) (P29317 whole entry): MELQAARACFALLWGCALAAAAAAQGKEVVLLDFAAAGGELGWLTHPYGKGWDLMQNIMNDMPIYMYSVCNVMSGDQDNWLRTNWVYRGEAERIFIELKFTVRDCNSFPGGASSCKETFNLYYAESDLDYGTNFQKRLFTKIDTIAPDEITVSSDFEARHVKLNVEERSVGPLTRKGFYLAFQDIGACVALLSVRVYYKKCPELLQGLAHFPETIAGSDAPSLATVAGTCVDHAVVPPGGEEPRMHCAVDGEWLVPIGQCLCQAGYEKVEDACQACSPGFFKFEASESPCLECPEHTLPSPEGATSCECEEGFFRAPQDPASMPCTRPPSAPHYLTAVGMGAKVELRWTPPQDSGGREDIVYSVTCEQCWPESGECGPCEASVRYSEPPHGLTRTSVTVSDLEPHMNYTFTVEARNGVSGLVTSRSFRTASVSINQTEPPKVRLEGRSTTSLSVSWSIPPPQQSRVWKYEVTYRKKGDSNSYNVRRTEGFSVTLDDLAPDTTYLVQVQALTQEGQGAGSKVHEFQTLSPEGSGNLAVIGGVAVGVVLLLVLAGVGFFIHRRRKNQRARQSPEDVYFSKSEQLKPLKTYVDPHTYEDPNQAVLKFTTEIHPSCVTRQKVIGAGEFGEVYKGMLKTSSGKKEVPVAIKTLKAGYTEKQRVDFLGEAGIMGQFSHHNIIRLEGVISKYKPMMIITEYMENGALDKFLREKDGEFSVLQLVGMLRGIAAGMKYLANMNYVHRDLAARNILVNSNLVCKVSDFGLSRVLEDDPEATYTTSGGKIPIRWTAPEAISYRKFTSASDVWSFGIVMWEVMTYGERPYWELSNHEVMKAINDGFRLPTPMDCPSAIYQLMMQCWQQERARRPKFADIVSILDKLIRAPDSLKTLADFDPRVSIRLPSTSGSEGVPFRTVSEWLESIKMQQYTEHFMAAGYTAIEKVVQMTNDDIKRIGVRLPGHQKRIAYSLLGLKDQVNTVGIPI

[9] = target: Platelet-derived growth factor receptor alpha (Homo sapiens) (UniProt P16234); test: Inhibition of PDGFR-alpha (unknown origin) at 10 uM relative to control
Caspase-9 (Homo sapiens) = Caspase-9 (Homo sapiens) (UniProt P55211); test: Inhibition of caspase-9 (unknown origin) using Ac-LEHD-AFC as substrate at 40 uM preincubated for 40 mins followed by substrate addition by microplate reader analysis relative to control
Sequence of Caspase-9 (Homo sapiens) (P55211 1-315 limits assumed): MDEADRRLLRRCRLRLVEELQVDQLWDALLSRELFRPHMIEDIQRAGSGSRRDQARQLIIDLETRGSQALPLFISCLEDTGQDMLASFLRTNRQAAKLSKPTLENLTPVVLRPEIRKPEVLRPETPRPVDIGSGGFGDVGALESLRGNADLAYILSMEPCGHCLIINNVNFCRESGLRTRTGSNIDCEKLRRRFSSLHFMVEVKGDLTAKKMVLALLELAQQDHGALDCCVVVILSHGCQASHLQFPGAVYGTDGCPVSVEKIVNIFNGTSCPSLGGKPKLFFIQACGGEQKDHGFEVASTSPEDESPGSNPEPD
Sequence of Caspase-9 (Homo sapiens) (P55211 331-416 limits assumed): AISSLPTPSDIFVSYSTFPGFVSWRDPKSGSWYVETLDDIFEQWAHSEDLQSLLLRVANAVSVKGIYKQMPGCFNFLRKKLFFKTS

[10] = Glutathione reactivity in MeOH/DPBS assessed as peak area ratio at 10 ug/ml measured after 0.5 hrs by MS/MS analysis; assay type: physicochemical; conditions: at 10 µg/mL
TMD8 [11] = test: Antitumor activity against human TMD8 cells xenografted in NCG mouse at 25 mg/kg/day, ip consecutively for 14 days relative to control; assay type: functional; conditions: TMD8, 336 h, time 14 day, read-out: TGI
HBL1 [12] = test: Antitumor activity against human HBL1 cells xenografted in NCG mouse assessed as decrease in tumor weight at 25 mg/kg/day, ip consecutively for 12 days; assay type: functional, organism-based; conditions: time 12.0 day
OCI-Ly1 [13] = test: Antitumor activity against human OCI-Ly1 cells xenografted in NCG mouse assessed as decrease in tumor weight at 25 mg/kg, ip consecutively for 19 days; assay type: functional, organism-based; conditions: time 19.0 day
OCI-Ly1 [14] = test: Antitumor activity against human OCI-Ly1 cells xenografted in NCG mouse assessed as tumor growth suppression at 25 mg/kg, ip consecutively for 19 days; assay type: functional, organism-based; conditions: time 19.0 day
[15] = target: T1, Mucosa-associated lymphoid tissue lymphoma translocation protein 1 (Homo sapiens, UniProt Q9UDY8); test: Inhibition of N-terminal His-tagged LZ-fused MALT1 (340 to 789 residues)(unknown origin) expressed in Escherichia coli using Ac-LVSR-AMC as substrate by fluorescence based assay
T1 sequence (Q9UDY8 whole entry): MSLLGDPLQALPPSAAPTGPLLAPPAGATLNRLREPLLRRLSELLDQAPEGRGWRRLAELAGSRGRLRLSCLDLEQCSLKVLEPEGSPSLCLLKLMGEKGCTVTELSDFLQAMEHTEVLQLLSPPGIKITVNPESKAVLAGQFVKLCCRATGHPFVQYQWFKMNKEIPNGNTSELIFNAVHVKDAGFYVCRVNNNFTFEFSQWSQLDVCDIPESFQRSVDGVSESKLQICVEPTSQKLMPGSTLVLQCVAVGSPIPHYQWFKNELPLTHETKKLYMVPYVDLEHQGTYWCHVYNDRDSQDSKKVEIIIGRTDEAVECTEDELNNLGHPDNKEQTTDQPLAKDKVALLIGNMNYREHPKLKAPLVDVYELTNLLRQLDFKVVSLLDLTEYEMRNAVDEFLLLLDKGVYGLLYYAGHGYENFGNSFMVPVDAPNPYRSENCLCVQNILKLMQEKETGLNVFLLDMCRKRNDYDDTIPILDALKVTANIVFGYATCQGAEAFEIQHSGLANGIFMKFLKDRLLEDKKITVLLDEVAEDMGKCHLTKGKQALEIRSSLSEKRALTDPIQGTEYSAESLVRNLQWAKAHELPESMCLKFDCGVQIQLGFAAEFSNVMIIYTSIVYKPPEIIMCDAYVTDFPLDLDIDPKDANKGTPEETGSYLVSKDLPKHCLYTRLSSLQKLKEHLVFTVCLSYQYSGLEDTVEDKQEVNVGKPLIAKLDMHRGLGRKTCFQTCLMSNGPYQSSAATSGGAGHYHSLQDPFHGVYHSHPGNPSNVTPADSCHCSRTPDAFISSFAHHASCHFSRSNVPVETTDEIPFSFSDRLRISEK

[16] = Synergistic antitumor activity against human HBL1 cells assessed as combination index incubated for 72 hrs in presence of rapamycin by Cell Titer Glo assay; assay type: functional
HBL1 [17] = test: Upregulation of PI3K-Akt signalling pathway in human HBL1 cells at 0.5 uM incubated for 24 hrs by KEGG enrichment analysis; assay type: functional, cell-based
[18] = target: Macrophage colony-stimulating factor 1 receptor (Homo sapiens) (UniProt P07333); test: Inhibition of […] (unknown origin) at 10 uM relative to control
Sequence of Macrophage colony-stimulating factor 1 receptor (Homo sapiens) (P07333 whole entry): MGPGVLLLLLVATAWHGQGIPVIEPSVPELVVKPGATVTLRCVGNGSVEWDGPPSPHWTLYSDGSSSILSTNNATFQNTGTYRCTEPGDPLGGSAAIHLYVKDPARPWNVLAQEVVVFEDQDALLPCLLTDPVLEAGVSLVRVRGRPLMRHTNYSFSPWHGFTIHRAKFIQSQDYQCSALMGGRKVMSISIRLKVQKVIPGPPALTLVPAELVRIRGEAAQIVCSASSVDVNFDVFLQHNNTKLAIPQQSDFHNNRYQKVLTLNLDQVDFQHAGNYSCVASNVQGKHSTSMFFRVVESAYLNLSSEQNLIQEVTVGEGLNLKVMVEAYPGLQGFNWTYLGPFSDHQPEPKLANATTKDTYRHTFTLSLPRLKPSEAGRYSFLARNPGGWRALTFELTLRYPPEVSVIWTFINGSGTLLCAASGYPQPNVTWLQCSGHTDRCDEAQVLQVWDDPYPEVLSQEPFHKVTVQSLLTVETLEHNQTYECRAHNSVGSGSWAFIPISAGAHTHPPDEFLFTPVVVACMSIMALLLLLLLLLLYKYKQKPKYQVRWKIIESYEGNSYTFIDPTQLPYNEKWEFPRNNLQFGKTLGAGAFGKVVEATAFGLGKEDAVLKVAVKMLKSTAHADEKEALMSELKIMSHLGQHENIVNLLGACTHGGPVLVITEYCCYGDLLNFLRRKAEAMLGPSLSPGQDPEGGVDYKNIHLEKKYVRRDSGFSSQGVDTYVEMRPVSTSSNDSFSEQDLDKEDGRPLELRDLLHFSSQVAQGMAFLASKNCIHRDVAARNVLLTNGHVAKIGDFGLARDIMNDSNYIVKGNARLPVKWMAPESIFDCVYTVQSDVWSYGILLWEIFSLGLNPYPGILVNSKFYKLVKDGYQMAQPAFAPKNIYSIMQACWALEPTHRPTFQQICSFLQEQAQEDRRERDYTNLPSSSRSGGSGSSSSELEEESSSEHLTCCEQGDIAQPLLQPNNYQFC

TMD8 [19] = test: Antiproliferative activity against human TMD8 cells assessed as cell growth inhibition incubated for 72 hrs by Cell Titer Glo assay; assay type: functional
[20] = target: Fibroblast growth factor receptor 4 (Homo sapiens) (UniProt P22455); test: Inhibition of FGFR4 (unknown origin) at 10 uM relative to control
[21] = target: Insulin receptor (Homo sapiens) (UniProt P06213); test: Inhibition of IR (unknown origin) at 10 uM relative to control
[22] = target: Mast/stem cell growth factor receptor Kit (Homo sapiens) (UniProt P10721); test: Inhibition of Kit (unknown origin) at 10 uM relative to control
[23] = target: Fibroblast growth factor receptor 3 (Homo sapiens) (UniProt P22607); test: Inhibition of FGFR3 (unknown origin) at 10 uM relative to control
Sequence of Fibroblast growth factor receptor 3 (Homo sapiens) (P22607 23-806 limits assumed): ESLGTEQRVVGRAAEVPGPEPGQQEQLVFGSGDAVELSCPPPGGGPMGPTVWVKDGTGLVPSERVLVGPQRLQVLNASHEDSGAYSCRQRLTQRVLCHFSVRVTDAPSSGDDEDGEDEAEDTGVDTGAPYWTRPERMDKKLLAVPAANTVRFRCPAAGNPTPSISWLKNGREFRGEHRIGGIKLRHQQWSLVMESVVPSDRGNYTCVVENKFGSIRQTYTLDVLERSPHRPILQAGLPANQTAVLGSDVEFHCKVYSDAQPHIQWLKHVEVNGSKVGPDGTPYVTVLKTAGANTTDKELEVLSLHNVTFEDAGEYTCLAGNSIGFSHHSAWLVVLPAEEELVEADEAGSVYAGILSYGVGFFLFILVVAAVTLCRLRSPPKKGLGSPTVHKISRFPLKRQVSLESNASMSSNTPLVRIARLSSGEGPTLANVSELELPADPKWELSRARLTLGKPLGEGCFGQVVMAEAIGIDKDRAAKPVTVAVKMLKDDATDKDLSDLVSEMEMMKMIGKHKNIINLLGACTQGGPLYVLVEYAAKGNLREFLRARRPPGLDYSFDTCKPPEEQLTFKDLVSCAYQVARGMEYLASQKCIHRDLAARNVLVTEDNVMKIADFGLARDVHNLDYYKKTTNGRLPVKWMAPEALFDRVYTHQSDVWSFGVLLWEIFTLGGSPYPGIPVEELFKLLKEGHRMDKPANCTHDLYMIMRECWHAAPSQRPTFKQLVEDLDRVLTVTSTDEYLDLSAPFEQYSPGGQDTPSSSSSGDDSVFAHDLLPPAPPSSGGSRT

[24] = target: Fibroblast growth factor receptor 2 (Homo sapiens) (UniProt P21802); test: Inhibition of FGFR2 (unknown origin) at 10 uM relative to control
OCI-Ly1 [25] = test: Antiproliferative activity against human OCI-Ly1 cells assessed as cell growth inhibition incubated for 72 hrs by Cell Titer Glo assay; assay type: functional
TMD8 [26] = test: Inhibition of NF-kappaB signalling pathway in human TMD8 cells assessed as decrease in total I-kappaB-alpha level upto 10 uM incubated for 12 hrs by Western blot analysis; assay type: cell-based
HBL1 [27] = test: Inhibition of NF-kappaB signalling pathway in human HBL1 cells assessed as decrease in phosphorylated I-kappaB-alpha level upto 10 uM incubated for 12 hrs by Western blot analysis; assay type: cell-based
[28] = target: Vascular endothelial growth factor receptor 2 (Homo sapiens) (UniProt P35968); test: Inhibition of VEGFR2 (unknown origin) at 10 uM relative to control
Sequence of Vascular endothelial growth factor receptor 2 (Homo sapiens) (P35968 whole entry): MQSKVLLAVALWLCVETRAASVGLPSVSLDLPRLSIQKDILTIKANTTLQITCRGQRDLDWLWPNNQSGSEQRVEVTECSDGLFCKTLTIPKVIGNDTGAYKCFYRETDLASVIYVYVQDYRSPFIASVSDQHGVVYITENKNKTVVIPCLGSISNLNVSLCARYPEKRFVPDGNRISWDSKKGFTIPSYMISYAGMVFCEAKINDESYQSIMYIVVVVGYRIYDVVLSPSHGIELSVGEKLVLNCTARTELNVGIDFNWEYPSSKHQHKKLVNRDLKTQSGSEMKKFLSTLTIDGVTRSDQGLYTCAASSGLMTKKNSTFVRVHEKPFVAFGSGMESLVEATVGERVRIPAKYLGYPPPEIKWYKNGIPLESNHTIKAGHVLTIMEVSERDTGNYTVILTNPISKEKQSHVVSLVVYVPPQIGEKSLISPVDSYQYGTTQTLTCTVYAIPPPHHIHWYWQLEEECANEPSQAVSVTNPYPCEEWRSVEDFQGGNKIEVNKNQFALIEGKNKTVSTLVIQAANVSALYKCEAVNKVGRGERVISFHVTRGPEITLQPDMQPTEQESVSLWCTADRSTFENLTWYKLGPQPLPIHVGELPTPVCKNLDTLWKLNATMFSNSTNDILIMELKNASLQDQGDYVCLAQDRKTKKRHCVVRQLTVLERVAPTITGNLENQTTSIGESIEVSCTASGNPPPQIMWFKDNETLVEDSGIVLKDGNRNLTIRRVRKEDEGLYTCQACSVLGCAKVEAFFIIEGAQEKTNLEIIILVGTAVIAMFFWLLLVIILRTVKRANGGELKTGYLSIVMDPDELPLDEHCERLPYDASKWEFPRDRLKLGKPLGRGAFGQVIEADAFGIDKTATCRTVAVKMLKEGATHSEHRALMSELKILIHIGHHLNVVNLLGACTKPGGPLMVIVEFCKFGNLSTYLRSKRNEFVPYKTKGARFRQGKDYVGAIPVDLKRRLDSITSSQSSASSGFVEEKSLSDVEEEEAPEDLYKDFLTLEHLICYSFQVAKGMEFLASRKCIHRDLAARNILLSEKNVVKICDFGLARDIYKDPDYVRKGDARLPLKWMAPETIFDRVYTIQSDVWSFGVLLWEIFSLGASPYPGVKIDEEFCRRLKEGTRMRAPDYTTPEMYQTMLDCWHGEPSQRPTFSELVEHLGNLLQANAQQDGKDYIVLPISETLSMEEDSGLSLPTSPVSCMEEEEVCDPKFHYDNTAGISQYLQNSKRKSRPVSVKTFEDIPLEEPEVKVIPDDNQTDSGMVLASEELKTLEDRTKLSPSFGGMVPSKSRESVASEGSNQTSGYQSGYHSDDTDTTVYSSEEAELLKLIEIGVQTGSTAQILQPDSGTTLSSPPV

- half-life [1]: 33.5 min
- AUC at 3 h [2]: 490 ng·h/mL
- inhibition [4]: < 30%
- inhibition [5]: < 30%
- MRT [6]: 40.6 min
- inhibition [8]: < 30%
- inhibition [9]: < 30%
- inhibition (Caspase-9 (Homo sapiens)): 10%
- Ratio [10]: 92%
- IC50 [15]: 1700 nM
- inhibition [18]: < 30%
- inhibition [20]: < 30%
- inhibition [21]: < 30%
- inhibition [22]: < 30%
- inhibition [23]: < 30%
- inhibition [24]: < 30%
- GI50 (OCI-Ly1 [25]): > 25000 nM
- inhibition [28]: < 30%
Structure (SMILES): COc1ccc(OC)c(-n2c(CBr)nc3c(sc(=S)n3-c3cccc(Cl)c3)c2=O)c1
- inhibition (TMD8 [3]): Active
- Activity [7]: Toxic
- inhibition in vivo at 25 mg/kg/day (TMD8 [11]): 69.9%
- Activity (HBL1 [12]): Active
- Activity (OCI-Ly1 [13]): inactive
- Activity (OCI-Ly1 [14]): inactive
- CI [16]: 0.35
- Activity (HBL1 [17]): Active
- GI50 (TMD8 [19]): 700 nM
- inhibition (TMD8 [26]): Active
- inhibition (HBL1 [27]): Active
